From ChEMBL document CHEMBL3351728, “3-alkoxy-pyrrolo[1,2-b]pyrazolines as selective androgen receptor modulators with ideal physicochemical properties for transdermal administration” (J Med Chem, 2014)
Values after ≈ are worked out from the molar mass of the structure shown. Active and inactive are the calls of the source. The rule behind the calls is not given here.

Columns and labels:
[1] = test system: Zone of skin; test: Skin permeability in human cadaver skin in Franz diffusion cell system; format: ADME
[2] = Skin permeability by silicone and isopropyl myristate (70:30) containing artificial membranes based skin PAMPA method; format: ADME
[3] = Thermodynamic solubility of the compound at pH 7.4; format: physicochemical; details: buffer, read-out: Therm_solubility
[4] = Skin drug retention by silicone and isopropyl myristate (70:30) containing artificial membranes based skin PAMPA method
[5] = molecular target: T1, Androgen receptor (Homo sapiens, UniProt P10275)
T1 sequence (P10275 whole entry): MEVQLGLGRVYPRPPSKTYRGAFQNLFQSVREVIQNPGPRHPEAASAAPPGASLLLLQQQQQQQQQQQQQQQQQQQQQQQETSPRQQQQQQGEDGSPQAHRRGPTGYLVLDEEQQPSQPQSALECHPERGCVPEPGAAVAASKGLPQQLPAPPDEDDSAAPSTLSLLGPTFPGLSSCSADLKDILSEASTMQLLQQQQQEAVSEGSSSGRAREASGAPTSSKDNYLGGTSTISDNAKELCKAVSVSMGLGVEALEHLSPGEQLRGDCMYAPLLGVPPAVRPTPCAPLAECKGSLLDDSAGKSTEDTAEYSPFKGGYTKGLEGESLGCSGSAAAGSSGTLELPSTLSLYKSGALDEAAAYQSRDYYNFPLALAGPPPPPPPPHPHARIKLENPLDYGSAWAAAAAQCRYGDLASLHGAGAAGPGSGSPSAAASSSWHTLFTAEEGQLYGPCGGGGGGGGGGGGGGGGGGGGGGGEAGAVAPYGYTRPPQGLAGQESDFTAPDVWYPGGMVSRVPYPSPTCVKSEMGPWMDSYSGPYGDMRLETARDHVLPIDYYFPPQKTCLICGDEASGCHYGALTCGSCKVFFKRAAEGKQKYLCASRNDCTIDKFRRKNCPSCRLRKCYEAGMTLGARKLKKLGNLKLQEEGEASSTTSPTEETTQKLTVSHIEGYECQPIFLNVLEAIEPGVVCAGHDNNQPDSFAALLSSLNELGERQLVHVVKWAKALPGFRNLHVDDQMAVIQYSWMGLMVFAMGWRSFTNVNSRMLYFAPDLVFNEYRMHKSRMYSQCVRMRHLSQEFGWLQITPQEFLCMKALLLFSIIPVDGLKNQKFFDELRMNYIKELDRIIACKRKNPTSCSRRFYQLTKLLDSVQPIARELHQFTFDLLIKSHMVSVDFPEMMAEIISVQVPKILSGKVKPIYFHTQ

[6] = molecular target: T2, Androgen receptor (Homo sapiens) (UniProt P10275); test: Agonist activity at human androgen receptor expressed in mouse C2C12 cells by androgen-specific response element-driven luciferase reporter gene assay relative to DHT; format: cell-based
T2 sequence (whole entry): T1 sequence (P10275 whole entry)

[7] = Lipophilicity, logP of the compound; format: physicochemical; details: octanol/water
[8] = molecular target: T1, Androgen receptor; details: c2c12
[9] = test system: Rattus norvegicus; test: Anabolic activity in orchidectomized rat assessed as stimulation of bulbocavernosus/levator ani muscle weight treated subcutaneously once daily for 14 days by Hershberger assay; format: functional; details: sc, 336 h
[10] = test system: Rattus norvegicus; test: Androgenic activity in orchidectomized rat assessed as stimulation of prostate weight treated subcutaneously once daily for 14 days by Hershberger assay; format: organism-based; details: Prostate gland, sc, 336 h

Structure (SMILES) | Jss [1] [ug/cm2.hr] | solubility thermodynamic [3] [µg/mL] | EC50 [5] [nM] | Emax [6] | other results
CO[C@@H]1C(c2ccc(C#N)c(Cl)c2C)=NN2CC[C@@H](F)[C@@H]12 | 1.2 | 10 (≈ 32.5 µM) | 0.16 | 98% | permeability [2]: permeable; Drug uptake [4]: inactive; logP [7]: 2.7
CO[C@@H]1C(c2ccc(C#N)c(Cl)c2C)=NN2CC(=O)C[C@@H]12 | – | – | 26 | 93% | –
C[C@]12CC[C@H]3[C@@H](CCC4=CC(=O)CC[C@@]43C)[C@@H]1CC[C@@H]2O [TESTOSTERONE] | 0.19 | 40 (≈ 139 µM) | – | – | permeability [2]: permeable; Drug uptake [4]: inactive
CO[C@@H]1C(c2ccc(C#N)c(Cl)c2C)=NN2C[C@@H](O)C[C@@H]12 | – | – | – | inactive | EC50 [8]: Not Active
CO[C@@H]1C(c2ccc(C#N)c(Cl)c2C)=NN2C[C@@H](F)C[C@@H]12 | – | – | 1.4 | 86% | –
CCC(=O)O[C@H]1CC[C@H]2[C@@H]3CCC4=CC(=O)CC[C@]4(C)[C@H]3CC[C@]12C [TESTOSTERONE PROPIONATE] | – | – | – | – | ED50 [9]: 0.29 mg/kg; ED50 [10]: 0.31 mg/kg
CO[C@@H]1C(c2ccc(C#N)c(Cl)c2C)=NN2CC[C@@H](O)[C@@H]12 | 0.2 | 250 (≈ 818 µM) | 0.4 | 86.7% | logP [7]: 1.9
Cc1c(C2=NN3CC[C@H](O)[C@H]3[C@@H]2O)ccc(C#N)c1Cl | – | – | 978 | 55% | –
